Laboratory results from paper PMC5218480 (PLoS ONE, 2017).

Test system: MV-4-11 cells
Experiment: Gene expression microarray analysis (Affymetrix PrimeView) and GSEA
Type: cell-based, human
Set-up: RFU PODN (11730768_x_at) / Fold change /veh PODN (11730768_x_at) / RFU LINC00158 (11744669_a_at) / Fold change /veh LINC00158 (11744669_a_at) / RFU DUSP10 (11751237_a_at) / Fold change /veh DUSP10 (11751237_a_at) / RFU ID3 (11757404_x_at) / Fold change /veh ID3 (11757404_x_at) / RFU PLEKHG5 (11737974_s_at) / Fold change /veh PLEKHG5 (11737974_s_at) / RFU LRRC4B (11730491_at) / Fold change /veh LRRC4B (11730491_at) / RFU GIMAP4 (11747438_a_at) / Fold change /veh GIMAP4 (11747438_a_at) / RFU KRT8 (11758183_x_at) / Fold change /veh KRT8 (11758183_x_at) / RFU CNN1 (11734310_a_at) / Fold change /veh CNN1 (11734310_a_at) / RFU VPS37D (11726825_at) / Fold change /veh VPS37D (11726825_at) / RFU C10orf10 (11716522_x_at) / Fold change /veh C10orf10 (11716522_x_at) / RFU KIR2DL2 /// KIR2DL4 /// KIR2DL5A /// KIR2DL5B /// KIR2DS1 /// KIR2DS2 /// KIR2DS3 /// KIR2DS4 /// KIR3DL3 /// KIR3DL3 /// KIR3DS1 (11738374_at) / Fold change /veh KIR2DL2 /// KIR2DL4 /// KIR2DL5A /// KIR2DL5B /// KIR2DS1 /// KIR2DS2 /// KIR2DS3 /// KIR2DS4 /// KIR3DL3 /// KIR3DL3 /// KIR3DS1 (11738374_at) / RFU C1QL1 (11718748_at) / Fold change /veh C1QL1 (11718748_at) / RFU TMPRSS4 (11747572_a_at) / Fold change /veh TMPRSS4 (11747572_a_at) / RFU HAMP (11756126_x_at) / Fold change /veh HAMP (11756126_x_at) / RFU RNFT2 (11725882_a_at) / Fold change /veh RNFT2 (11725882_a_at) / RFU NR4A2 (11747474_a_at) / Fold change /veh NR4A2 (11747474_a_at) / RFU ABCC12 (11746883_a_at) / Fold change /veh ABCC12 (11746883_a_at) / RFU TMEM136 (11760407_x_at) / Fold change /veh TMEM136 (11760407_x_at) / RFU CLDN22 /// WWC2 (11732394_at) / Fold change /veh CLDN22 /// WWC2 (11732394_at) / RFU HLA-DPB1 (11760878_x_at) / Fold change /veh HLA-DPB1 (11760878_x_at) / RFU SPINT1 (11716480_a_at) / Fold change /veh SPINT1 (11716480_a_at) / RFU GAP43 (11754022_s_at) / Fold change /veh GAP43 (11754022_s_at) / RFU A4GNT (11735810_at) / Fold change /veh A4GNT (11735810_at) / RFU PRB3 (11715151_x_at) / Fold change /veh PRB3 (11715151_x_at) / RFU TUBB4B (11761932_at) / Fold change /veh TUBB4B (11761932_at) / RFU CAPN14 (11732068_a_at) / Fold change /veh CAPN14 (11732068_a_at) / RFU TMCC2 (11721928_a_at) / Fold change /veh TMCC2 (11721928_a_at) / RFU IRGQ (11745062_a_at) / Fold change /veh IRGQ (11745062_a_at) / RFU FAM174B (11720279_a_at) / Fold change /veh FAM174B (11720279_a_at) / RFU TMPRSS4 (11748680_a_at) / Fold change /veh TMPRSS4 (11748680_a_at) / RFU FAM212B (11763350_a_at) / Fold change /veh FAM212B (11763350_a_at) / RFU PLEKHG5 (11743358_a_at) / Fold change /veh PLEKHG5 (11743358_a_at) / RFU ZSCAN30 (11745921_a_at) / Fold change /veh ZSCAN30 (11745921_a_at) / RFU CMKLR1 (11741424_a_at) / Fold change /veh CMKLR1 (11741424_a_at) / RFU LOC101060620 /// MAPK8IP1 (11723275_at) / Fold change /veh LOC101060620 /// MAPK8IP1 (11723275_at) / RFU SPTSSB (11747773_x_at) / Fold change /veh SPTSSB (11747773_x_at) / RFU PRSS12 (11739890_at) / Fold change /veh PRSS12 (11739890_at) / RFU BIN1 (11741810_x_at) / Fold change /veh BIN1 (11741810_x_at) / RFU WNT11 (11732464_a_at) / Fold change /veh WNT11 (11732464_a_at) / RFU C10orf10 (11716521_a_at) / Fold change /veh C10orf10 (11716521_a_at) / RFU C5orf56 (11738089_at) / Fold change /veh C5orf56 (11738089_at) / RFU CYB561 (11721691_x_at) / Fold change /veh CYB561 (11721691_x_at) / RFU ANKRD19P (11752326_a_at) / Fold change /veh ANKRD19P (11752326_a_at) / RFU OR2T12 /// OR2T33 /// OR2T8 (11738714_s_at) / Fold change /veh OR2T12 /// OR2T33 /// OR2T8 (11738714_s_at) / RFU VCAN (11748164_a_at) / Fold change /veh VCAN (11748164_a_at) / RFU JSRP1 (11732532_at) / Fold change /veh JSRP1 (11732532_at) / RFU KRTAP10-11 (11738290_x_at) / Fold change /veh KRTAP10-11 (11738290_x_at) / RFU MYO3A (11730013_a_at) / Fold change /veh MYO3A (11730013_a_at) / RFU EBF3 (11725865_a_at) / Fold change /veh EBF3 (11725865_a_at) / RFU CAMK2N1 (11719241_x_at) / Fold change /veh CAMK2N1 (11719241_x_at) / RFU C5orf56 (11738088_a_at) / Fold change /veh C5orf56 (11738088_a_at) / RFU OLFML3 (11715873_a_at) / Fold change /veh OLFML3 (11715873_a_at) / RFU LOC100653217 /// NTM (11731650_a_at) / Fold change /veh LOC100653217 /// NTM (11731650_a_at) / RFU MAPK11 (11762145_a_at) / Fold change /veh MAPK11 (11762145_a_at) / RFU FIZ1 (11724087_x_at) / Fold change /veh FIZ1 (11724087_x_at) / RFU OASL (11726364_x_at) / Fold change /veh OASL (11726364_x_at) / RFU SOX15 (11748057_x_at) / Fold change /veh SOX15 (11748057_x_at) / RFU CD79A (11719716_a_at) / Fold change /veh CD79A (11719716_a_at) / RFU HIST1H1D (11736915_at) / Fold change /veh HIST1H1D (11736915_at) / RFU CASKIN2 (11723855_a_at) / Fold change /veh CASKIN2 (11723855_a_at) / RFU LOC730098 (11760151_x_at) / Fold change /veh LOC730098 (11760151_x_at) / RFU OR4N2 (11742367_at) / Fold change /veh OR4N2 (11742367_at) / RFU PRRT2 (11749266_a_at) / Fold change /veh PRRT2 (11749266_a_at) / RFU SNX32 (11753110_a_at) / Fold change /veh SNX32 (11753110_a_at) / RFU CDHR5 (11726645_a_at) / Fold change /veh CDHR5 (11726645_a_at) / RFU RCAN1 (11760418_a_at) / Fold change /veh RCAN1 (11760418_a_at) / RFU FAM167A (11723789_a_at) / Fold change /veh FAM167A (11723789_a_at) / RFU FAM26E (11764081_at) / Fold change /veh FAM26E (11764081_at) / RFU ISYNA1 (11749810_s_at) / Fold change /veh ISYNA1 (11749810_s_at) / RFU ACY1 (11761880_at) / Fold change /veh ACY1 (11761880_at) / RFU 11764098_at / Fold change /veh 11764098_at / RFU SAMD14 (11745864_x_at) / Fold change /veh SAMD14 (11745864_x_at) / RFU NPB (11741838_a_at) / Fold change /veh NPB (11741838_a_at) / RFU TMPRSS6 (11731388_a_at) / Fold change /veh TMPRSS6 (11731388_a_at) / RFU KRTAP10-2 (11738614_at) / Fold change /veh KRTAP10-2 (11738614_at) / RFU ARHGAP8 /// PRR5-ARHGAP8 (11727945_x_at) / Fold change /veh ARHGAP8 /// PRR5-ARHGAP8 (11727945_x_at) / RFU KRTAP5-7 /// NADSYN1 (11734609_at) / Fold change /veh KRTAP5-7 /// NADSYN1 (11734609_at) / RFU RASL12 (11751679_a_at) / Fold change /veh RASL12 (11751679_a_at) / RFU CDKN2B (11736163_a_at) / Fold change /veh CDKN2B (11736163_a_at) / RFU PRF1 (11729649_at) / Fold change /veh PRF1 (11729649_at) / RFU, ZNF638 /// ZNF638-IT1 / Fold change vs veh, ZNF638 /// ZNF638-IT1 / RFU, PANK3 / Fold change vs veh, PANK3 / RFU, SH3YL1 / Fold change vs veh, SH3YL1 / RFU, ZEB2 / Fold change vs veh, ZEB2 / RFU, NRIP1 / Fold change vs veh, NRIP1 / RFU, PTTG1IP / Fold change vs veh, PTTG1IP / RFU, CAPN2 / Fold change vs veh, CAPN2 / RFU, MED14 / Fold change vs veh, MED14 / RFU, SNORA58 / Fold change vs veh, SNORA58 / RFU, C1orf63 / Fold change vs veh, C1orf63 / RFU, LRRFIP1 / Fold change vs veh, LRRFIP1 / RFU, NDUFAF7 / Fold change vs veh, NDUFAF7 / RFU, SLC12A2 / Fold change vs veh, SLC12A2 / RFU, IBTK / Fold change vs veh, IBTK / RFU, ESF1 / Fold change vs veh, ESF1 / Fold change vs veh, TMEM50B / RFU, TAOK1 / Fold change vs veh, TAOK1 / RFU, ACBD3 / Fold change vs veh, ACBD3 / RFU, TMA16 / Fold change vs veh, TMA16 / RFU, RWDD3 / Fold change vs veh, RWDD3 / RFU, BCAT1 / Fold change vs veh, BCAT1 / RFU, EDEM3 / Fold change vs veh, EDEM3 / RFU, TMEM33 / Fold change vs veh, TMEM33 / RFU, WDR75 / Fold change vs veh, WDR75 / RFU, AHCTF1 / Fold change vs veh, AHCTF1 / RFU, TFRC / Fold change vs veh, TFRC / RFU, ZDHHC17 / Fold change vs veh, ZDHHC17 / RFU, NOM1 / Fold change vs veh, NOM1 / RFU, ARL8B / Fold change vs veh, ARL8B / RFU, ZBTB11 / Fold change vs veh, ZBTB11 / RFU, TAMM41 / Fold change vs veh, TAMM41 / RFU, KIAA1704 /// LOC100996395 / Fold change vs veh, KIAA1704 /// LOC100996395 / RFU, ING1 / Fold change vs veh, ING1 / RFU, TRMT61B / Fold change vs veh, TRMT61B / RFU, FUBP3 / Fold change vs veh, FUBP3 / RFU, TP53 / Fold change vs veh, TP53 / RFU, TNKS2 / Fold change vs veh, TNKS2 / RFU, ZFP14 / Fold change vs veh, ZFP14 / RFU, ACTR2 / Fold change vs veh, ACTR2 / RFU, PPP3R1 / Fold change vs veh, PPP3R1 / RFU, PIK3R1 / Fold change vs veh, PIK3R1 / RFU, HNRNPA1 / Fold change vs veh, HNRNPA1 / RFU, RNF170 / Fold change vs veh, RNF170 / RFU, ZNF28 / Fold change vs veh, ZNF28 / RFU, RNGTT / Fold change vs veh, RNGTT / RFU, OGT / Fold change vs veh, OGT / RFU, BRD1 / Fold change vs veh, BRD1 / RFU, MARS / Fold change vs veh, MARS / RFU, ZNF655 / Fold change vs veh, ZNF655 / RFU, FAHD1 / Fold change vs veh, FAHD1 / RFU, BDP1 / Fold change vs veh, BDP1 / RFU, LRRCC1 / Fold change vs veh, LRRCC1 / RFU, ARID1A / Fold change vs veh, ARID1A / RFU, ZNF146 / Fold change vs veh, ZNF146 / RFU, ZNF330 / Fold change vs veh, ZNF330 / RFU, GPN3 / Fold change vs veh, GPN3 / RFU, C9orf123 / Fold change vs veh, C9orf123 / RFU, N4BP2L2 / Fold change vs veh, N4BP2L2 / RFU, ARFIP1 / Fold change vs veh, ARFIP1 / RFU, FAM179B / Fold change vs veh, FAM179B / RFU, BCL10 / Fold change vs veh, BCL10 / RFU, UHRF1BP1L / Fold change vs veh, UHRF1BP1L / RFU, BET1 / Fold change vs veh, BET1 / RFU, CNOT2 / Fold change vs veh, CNOT2 / RFU, ZNF268 / Fold change vs veh, ZNF268 / Fold change vs veh, ZNF507 / RFU, DGCR2 / Fold change vs veh, DGCR2 / RFU, WDSUB1 / Fold change vs veh, WDSUB1 / Fold change vs veh, HSP90B1 /// MIR3652 / RFU, ADSS / Fold change vs veh, ADSS / RFU, GK / Fold change vs veh, GK / RFU, ZNF148 / Fold change vs veh, ZNF148 / RFU, TAF9 / Fold change vs veh, TAF9 / RFU, SLC1A5 / Fold change vs veh, SLC1A5 / RFU, SLMO2 / Fold change vs veh, SLMO2 / RFU, ABCC4 / Fold change vs veh, ABCC4 / RFU, LOC101060439 /// RAP1B / Fold change vs veh, LOC101060439 /// RAP1B / RFU, RFX7 / Fold change vs veh, RFX7 / RFU, GTPBP10 / Fold change vs veh, GTPBP10 / RFU, CNEP1R1 / Fold change vs veh, CNEP1R1 / RFU, BIVM-ERCC5 /// ERCC5 / Fold change vs veh, BIVM-ERCC5 /// ERCC5 / RFU, ILF3 / Fold change vs veh, ILF3 / RFU 11762660_at / Fold change /veh 11762660_at / RFU VCAN (11757783_s_at) / Fold change /veh VCAN (11757783_s_at) / RFU DDX43 (11728927_at) / Fold change /veh DDX43 (11728927_at) / RFU KRT8 (11758188_x_at) / Fold change /veh KRT8 (11758188_x_at) / RFU NKD1 (11759106_at) / Fold change /veh NKD1 (11759106_at) / RFU SRD5A1 (11742802_a_at) / Fold change /veh SRD5A1 (11742802_a_at) / RFU TPSAB1 /// TPSB2 (11721975_s_at) / Fold change /veh TPSAB1 /// TPSB2 (11721975_s_at) / RFU GSTM3 (11746129_a_at) / Fold change /veh GSTM3 (11746129_a_at) / RFU IL23R (11737362_x_at) / Fold change /veh IL23R (11737362_x_at) / RFU TMEM51 (11727254_a_at) / Fold change /veh TMEM51 (11727254_a_at) / RFU PIWIL2 (11732686_x_at) / Fold change /veh PIWIL2 (11732686_x_at) / RFU ORM1 (11744905_x_at) / Fold change /veh ORM1 (11744905_x_at) / RFU CCDC152 (11743942_at) / Fold change /veh CCDC152 (11743942_at) / RFU ECM1 (11717891_a_at) / Fold change /veh ECM1 (11717891_a_at) / RFU IL23R (11748794_a_at) / Fold change /veh IL23R (11748794_a_at) / RFU TNFAIP8L3 (11732012_x_at) / Fold change /veh TNFAIP8L3 (11732012_x_at) / RFU MBOAT4 (11741988_at) / Fold change /veh MBOAT4 (11741988_at) / RFU 11764193_at / Fold change /veh 11764193_at / RFU TMEM53 (11763286_at) / Fold change /veh TMEM53 (11763286_at) / RFU MAGEB2 (11727129_at) / Fold change /veh MAGEB2 (11727129_at) / RFU TMEM200A (11744735_a_at) / Fold change /veh TMEM200A (11744735_a_at) / RFU CCDC152 (11751479_a_at) / Fold change /veh CCDC152 (11751479_a_at) / RFU FAM211A (11726209_a_at) / Fold change /veh FAM211A (11726209_a_at) / RFU RGS16 (11746705_a_at) / Fold change /veh RGS16 (11746705_a_at) / RFU VCAN (11755009_s_at) / Fold change /veh VCAN (11755009_s_at) / RFU RHOB (11743442_s_at) / Fold change /veh RHOB (11743442_s_at) / RFU RGS16 (11720943_a_at) / Fold change /veh RGS16 (11720943_a_at) / RFU RGS16 (11720944_at) / Fold change /veh RGS16 (11720944_at) / RFU, VPS4B / Fold change vs veh, VPS4B / RFU, CREB1 / Fold change vs veh, CREB1 / RFU, DNAJC13 / Fold change vs veh, DNAJC13 / RFU, GNAQ / Fold change vs veh, GNAQ / RFU, CDK5R1 / Fold change vs veh, CDK5R1 / RFU, ZRANB3 / Fold change vs veh, ZRANB3 / RFU, CUL4A / Fold change vs veh, CUL4A / RFU, CCNY / Fold change vs veh, CCNY / RFU, UFL1 / Fold change vs veh, UFL1 / RFU, COG3 / Fold change vs veh, COG3 / RFU, DIAPH2 / Fold change vs veh, DIAPH2 / RFU, SKA2 / Fold change vs veh, SKA2 / RFU, AFF3 / Fold change vs veh, AFF3 / RFU, LMF1 / Fold change vs veh, LMF1 / RFU, IPO11 / Fold change vs veh, IPO11 / RFU, DFFB / Fold change vs veh, DFFB / RFU, FOXP1 / Fold change vs veh, FOXP1 / RFU, CARD8 / Fold change vs veh, CARD8 / RFU, STRN3 / Fold change vs veh, STRN3 / RFU, ADK / Fold change vs veh, ADK / RFU, RASSF2 / Fold change vs veh, RASSF2 / RFU, WIPF1 / Fold change vs veh, WIPF1 / RFU, LARP1B / Fold change vs veh, LARP1B / RFU, RASA1 / Fold change vs veh, RASA1 / RFU, RB1 / Fold change vs veh, RB1 / RFU, PPFIA1 / Fold change vs veh, PPFIA1 / RFU, MAT2A / Fold change vs veh, MAT2A / RFU, CCT5 / Fold change vs veh, CCT5 / RFU, WDR92 / Fold change vs veh, WDR92 / RFU, CUX1 / Fold change vs veh, CUX1 / RFU, TTC7A / Fold change vs veh, TTC7A / RFU, TMEM135 / Fold change vs veh, TMEM135 / RFU, DEPTOR / Fold change vs veh, DEPTOR / RFU, CPM / Fold change vs veh, CPM / RFU, DNAJB6 / Fold change vs veh, DNAJB6 / RFU, CACNA2D3 / Fold change vs veh, CACNA2D3 / RFU, DTX4 / Fold change vs veh, DTX4 / RFU, TFCP2 / Fold change vs veh, TFCP2 / RFU, GMCL1 /// GMCL1P1 / Fold change vs veh, GMCL1 /// GMCL1P1 / RFU, AEBP2 / Fold change vs veh, AEBP2 / RFU, SNHG1 /// SNORD22 /// SNORD25 /// SNORD26 /// SNORD27 /// SNORD28 /// SNORD29 /// SNORD31 / Fold change vs veh, SNHG1 /// SNORD22 /// SNORD25 /// SNORD26 /// SNORD27 /// SNORD28 /// SNORD29 /// SNORD31 / Fold change (Aza/veh), C12orf56 (ProbeSet 11735607_a_at) / Fold change (ACY-1035/veh), C12orf56 (ProbeSet 11735607_a_at) / Fold change (Aza/veh), FGFR1OP (ProbeSet 11751329_s_at) / Fold change (ACY-1035/veh), FGFR1OP (ProbeSet 11751329_s_at) / Fold change (Aza/veh), VPS36 (ProbeSet 11739960_a_at) / Fold change (ACY-1035/veh), VPS36 (ProbeSet 11739960_a_at) / RFU SYPL1 (11715823_x_at) / Fold change /veh SYPL1 (11715823_x_at) / RFU IGFBP7 (11715501_s_at) / Fold change /veh IGFBP7 (11715501_s_at) / RFU REEP3 (11722064_at) / Fold change /veh REEP3 (11722064_at) / RFU IGLL1 (11728026_x_at) / Fold change /veh IGLL1 (11728026_x_at): dose or concentration left out as unconfirmed
Settings: ProbeSet 11722463_a_at; LIST B

How did the “Fold change vs veh, TNKS2” value turn out when `Nc1ccc(-c2cccs2)cc1NC(=O)c1ccc2c(c1)cc(C1CC1)n2CCN1CCOCC1` [ACY-1035] was run?
Its value is 0.96.
